From ChEMBL document CHEMBL1201862, “PubChem BioAssay data set” (2004)
Calls of active or inactive are those of the source.

Key:
[1] = A549 cell cytotoxicity, dose response, cytotoxicity control, plate reader, cherry-pick, antagonist series (AID 743412); format: functional, cell-based
[2] = toxicity toward HepG2 liver cells – cell-based, plate reader, cherry-pick, antagonist series, cytotoxicity control, dose response (AID 743416); format: functional
[3] = blockers of bursicon-stimulated LGR2 cAMP reporter – cell-based, HEK293, CRE-luciferase reporter, cherry pick, set 2, dose response (AID 743343); format: functional;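 further: transfected cells were stimulated with diluted bursicon conditioned medium after compound addition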
[4] = blockade of melanocortin 4 receptor signaling – cell-based, plate reader, cherry pick, counter-screen for LGR2 antagonist project, dose response (AID 743444); format: functional;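 further: transfected HEK 293 cells stimulated with alpha-MSH peptide; potency of inhibitors of the alpha-MSH evoked signal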
[5] = molecular target: T1, Oxysterols receptor LXR-beta (Homo sapiens, UniProt P55055); format: functional, cell-based;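 further: Cell-based luminescence dose-response assay of agonist activity at LXR, run as a confirmatory counterscreen to a daf-12 agonist screen; HEK293 cells with Gal4-LXR fusion and GAL4-driven luciferase reporter; agonist potency from rising luciferase signal of a Gal4-LXR reporter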
T1 sequence (P55055 whole entry): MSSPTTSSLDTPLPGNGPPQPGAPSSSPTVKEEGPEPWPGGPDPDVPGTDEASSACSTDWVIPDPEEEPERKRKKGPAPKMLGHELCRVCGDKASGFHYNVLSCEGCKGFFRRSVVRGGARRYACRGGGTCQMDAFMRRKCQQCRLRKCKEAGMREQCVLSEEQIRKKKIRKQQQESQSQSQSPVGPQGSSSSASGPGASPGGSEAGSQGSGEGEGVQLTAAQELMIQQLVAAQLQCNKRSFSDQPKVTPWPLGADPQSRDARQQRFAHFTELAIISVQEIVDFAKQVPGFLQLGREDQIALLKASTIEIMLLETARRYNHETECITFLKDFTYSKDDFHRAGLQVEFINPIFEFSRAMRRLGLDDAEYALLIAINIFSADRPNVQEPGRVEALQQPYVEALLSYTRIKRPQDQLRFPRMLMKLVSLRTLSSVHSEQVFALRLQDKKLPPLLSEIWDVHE

[6] = viability loss in HEK293 cells – cell-based, plate reader, cherry-picked samples, cytotoxicity control, dose response (AID 743446); format: functional
cells [7] = assay: cells
cells [8] = format: functional, cell-based
[9] = molecular target: T2, Trace amine-associated receptor 1 (Homo sapiens, UniProt Q96RJ0); assay: Fluorescence-based cell-based high throughput dose response assay to identify agonists of the human trace amine associated receptor 1 (TAAR1).; format: functional
T2 sequence (Q96RJ0 whole entry): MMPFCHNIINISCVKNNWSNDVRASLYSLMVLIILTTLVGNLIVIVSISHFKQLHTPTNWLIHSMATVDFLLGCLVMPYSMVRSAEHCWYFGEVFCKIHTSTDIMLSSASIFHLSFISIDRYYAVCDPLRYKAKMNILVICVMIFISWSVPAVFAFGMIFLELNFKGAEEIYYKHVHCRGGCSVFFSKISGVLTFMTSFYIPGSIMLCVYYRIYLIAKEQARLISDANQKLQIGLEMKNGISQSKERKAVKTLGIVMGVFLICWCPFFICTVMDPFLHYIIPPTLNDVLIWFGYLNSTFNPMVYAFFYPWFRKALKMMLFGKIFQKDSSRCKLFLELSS

[10] = molecular target: T2, Trace amine-associated receptor 1; assay: Counterscreen for agonists of the human trace amine associated receptor 1 (hTAAR1): Fluorescence-based cell-based high throughput dose response assay to identify hTAAR1 agonist that also desensitize TAAR1 receptor response.; format: functional
cells [11] = format: functional, cell-based; remark: listed apart in the source
Caspase-3 = molecular target: T3, Caspase-3 (Homo sapiens, UniProt P42574); format: functional;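 further: Dose-response selectivity test against caspase-3 for candidate inhibitors of sentrin-specific proteases (SENPs)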
T3 sequence (P42574 whole entry): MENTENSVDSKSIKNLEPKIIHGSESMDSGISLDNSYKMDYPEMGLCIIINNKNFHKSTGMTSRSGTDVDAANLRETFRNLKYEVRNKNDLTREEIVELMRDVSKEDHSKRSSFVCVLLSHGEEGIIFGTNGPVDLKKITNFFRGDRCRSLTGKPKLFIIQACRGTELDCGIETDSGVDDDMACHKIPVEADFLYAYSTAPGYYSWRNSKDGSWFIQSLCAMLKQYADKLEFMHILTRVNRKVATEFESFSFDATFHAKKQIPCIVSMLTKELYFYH

[12] = molecular target: T4, Sentrin-specific protease 7 (Homo sapiens, UniProt Q9BQF6); format: functional;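 further: Luminescence-based dose-response confirmation of ultra-high-throughput screening hits, measuring inhibition of SENP7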
T4 sequence (Q9BQF6 whole entry): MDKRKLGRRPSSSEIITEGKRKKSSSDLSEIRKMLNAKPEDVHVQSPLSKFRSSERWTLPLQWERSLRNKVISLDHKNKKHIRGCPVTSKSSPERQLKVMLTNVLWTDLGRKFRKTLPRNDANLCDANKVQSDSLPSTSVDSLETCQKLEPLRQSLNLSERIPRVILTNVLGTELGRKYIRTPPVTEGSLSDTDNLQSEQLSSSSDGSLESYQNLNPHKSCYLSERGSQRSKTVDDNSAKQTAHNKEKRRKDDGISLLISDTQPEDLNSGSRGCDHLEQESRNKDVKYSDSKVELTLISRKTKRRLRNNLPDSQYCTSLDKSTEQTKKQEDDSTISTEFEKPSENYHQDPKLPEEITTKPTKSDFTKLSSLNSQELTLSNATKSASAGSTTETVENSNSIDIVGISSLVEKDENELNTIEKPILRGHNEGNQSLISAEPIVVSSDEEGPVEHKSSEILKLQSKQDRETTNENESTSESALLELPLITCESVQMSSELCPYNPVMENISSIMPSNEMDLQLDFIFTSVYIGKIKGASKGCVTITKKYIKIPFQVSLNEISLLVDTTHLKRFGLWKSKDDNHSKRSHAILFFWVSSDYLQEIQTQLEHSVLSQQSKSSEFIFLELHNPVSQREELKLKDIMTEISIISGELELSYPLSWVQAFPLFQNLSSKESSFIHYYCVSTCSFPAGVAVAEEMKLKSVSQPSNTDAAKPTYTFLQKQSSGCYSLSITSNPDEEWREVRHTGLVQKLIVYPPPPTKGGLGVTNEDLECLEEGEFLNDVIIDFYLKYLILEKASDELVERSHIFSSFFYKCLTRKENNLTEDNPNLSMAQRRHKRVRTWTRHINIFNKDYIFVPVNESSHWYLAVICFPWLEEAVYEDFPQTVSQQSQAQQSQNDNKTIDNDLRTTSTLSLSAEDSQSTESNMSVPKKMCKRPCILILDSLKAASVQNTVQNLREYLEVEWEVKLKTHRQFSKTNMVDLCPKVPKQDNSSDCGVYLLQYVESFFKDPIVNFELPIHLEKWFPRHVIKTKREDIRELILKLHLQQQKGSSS

[13] = molecular target: T5, Sentrin-specific protease 6 (Homo sapiens, UniProt Q9GZR1); format: functional;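 further: Luminescence-based dose-response confirmatory assay of SENP6 inhibition, following up an ultra-high-throughput screen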
T5 sequence (Q9GZR1 whole entry): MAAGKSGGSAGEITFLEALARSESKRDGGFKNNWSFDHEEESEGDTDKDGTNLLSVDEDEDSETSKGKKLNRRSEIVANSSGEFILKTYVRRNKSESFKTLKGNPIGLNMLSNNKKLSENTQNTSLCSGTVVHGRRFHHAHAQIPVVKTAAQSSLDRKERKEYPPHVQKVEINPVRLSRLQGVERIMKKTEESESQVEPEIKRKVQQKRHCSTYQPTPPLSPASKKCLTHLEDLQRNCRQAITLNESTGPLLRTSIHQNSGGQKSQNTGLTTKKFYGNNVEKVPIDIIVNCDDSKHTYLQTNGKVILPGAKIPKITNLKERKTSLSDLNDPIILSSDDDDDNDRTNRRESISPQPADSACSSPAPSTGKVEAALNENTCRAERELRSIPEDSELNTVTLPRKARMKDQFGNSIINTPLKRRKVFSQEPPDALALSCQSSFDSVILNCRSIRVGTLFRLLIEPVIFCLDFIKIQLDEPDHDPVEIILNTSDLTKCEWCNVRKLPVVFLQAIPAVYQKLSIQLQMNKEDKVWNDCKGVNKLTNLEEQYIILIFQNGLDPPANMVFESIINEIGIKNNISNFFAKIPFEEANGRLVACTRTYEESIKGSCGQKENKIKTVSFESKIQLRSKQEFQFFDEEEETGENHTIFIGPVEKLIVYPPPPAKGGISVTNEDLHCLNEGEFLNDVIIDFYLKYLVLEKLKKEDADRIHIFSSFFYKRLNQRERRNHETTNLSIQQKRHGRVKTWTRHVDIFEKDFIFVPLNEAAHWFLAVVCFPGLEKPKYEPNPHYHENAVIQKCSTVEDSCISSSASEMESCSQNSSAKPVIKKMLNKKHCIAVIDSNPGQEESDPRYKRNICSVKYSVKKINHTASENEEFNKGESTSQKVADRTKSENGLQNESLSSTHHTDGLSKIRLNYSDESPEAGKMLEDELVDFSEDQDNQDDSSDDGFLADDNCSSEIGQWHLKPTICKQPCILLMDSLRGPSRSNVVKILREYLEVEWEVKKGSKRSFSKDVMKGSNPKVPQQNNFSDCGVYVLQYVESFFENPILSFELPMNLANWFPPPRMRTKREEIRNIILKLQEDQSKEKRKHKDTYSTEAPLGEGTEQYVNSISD

[14] = molecular target: T6, Sentrin-specific protease 8 (Homo sapiens, UniProt Q96LD8); format: functional;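 further: luminescence read-out of SENP8 inhibition, dose-response confirmation following an ultra-high-throughput screen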
T6 sequence (Q96LD8 whole entry): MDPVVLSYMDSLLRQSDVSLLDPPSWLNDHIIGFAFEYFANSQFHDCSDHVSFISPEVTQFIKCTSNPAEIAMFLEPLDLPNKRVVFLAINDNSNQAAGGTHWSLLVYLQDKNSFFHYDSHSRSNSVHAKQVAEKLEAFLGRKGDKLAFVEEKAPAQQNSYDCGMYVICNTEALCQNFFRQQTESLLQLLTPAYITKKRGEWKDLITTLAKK

[15] = system: Streptococcus sp. 'group A'; assay: Streptococcus pyogenes SK(-)GAS viability under kanamycin – luminescence, BacTiterGlo, confirmation, counter-screen for streptokinase expression inhibitor project, dose response (AID 1900); format: functional, organism-based
Streptokinase A = molecular target: T7, Streptokinase A (Streptococcus pyogenes serotype M1, UniProt P10520); assay: viability-normalized secreted streptokinase activity reduction – plasminogen activation absorbance, OD405, dose response (AID 1914); format: functional, Streptococcus pyogenes M1 GAS;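 further: secreted streptokinase activity via plasminogen activation per viability signal from cell pellet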
T7 sequence (P10520 whole entry): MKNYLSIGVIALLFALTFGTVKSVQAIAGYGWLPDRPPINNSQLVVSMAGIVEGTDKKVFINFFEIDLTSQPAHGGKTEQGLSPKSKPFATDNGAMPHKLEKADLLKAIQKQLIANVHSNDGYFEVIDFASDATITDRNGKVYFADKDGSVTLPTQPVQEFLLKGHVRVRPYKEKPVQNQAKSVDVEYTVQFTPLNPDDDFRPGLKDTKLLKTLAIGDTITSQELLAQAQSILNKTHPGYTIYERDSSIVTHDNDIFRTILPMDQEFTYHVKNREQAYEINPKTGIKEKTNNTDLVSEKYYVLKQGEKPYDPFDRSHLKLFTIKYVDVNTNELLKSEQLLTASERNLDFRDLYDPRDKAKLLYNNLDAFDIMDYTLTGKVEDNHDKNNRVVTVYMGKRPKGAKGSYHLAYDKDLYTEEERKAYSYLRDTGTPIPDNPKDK

Streptococcus = assay: GAS UMAA2166 growth inhibition – luminescence, BacTiterGlo, counter-screen for streptokinase expression inhibitor project, dose response (AID 1915); format: functional, organism-based;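 further: potency for reduction of bacterial viability or growth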
[16] = molecular target: Disintegrin and metalloproteinase domain-containing protein 17 (Homo sapiens, UniProt P78536); assay: inhibition of ADAM17 substrate cleavage – biochemical, quenched FRET substrate, counter-screen for ADAM10 exosite inhibitor project, dose response (AID 743253)
Disintegrin and metalloproteinase domain-containing protein 17, sequence (P78536 whole entry, the tested form may be a part): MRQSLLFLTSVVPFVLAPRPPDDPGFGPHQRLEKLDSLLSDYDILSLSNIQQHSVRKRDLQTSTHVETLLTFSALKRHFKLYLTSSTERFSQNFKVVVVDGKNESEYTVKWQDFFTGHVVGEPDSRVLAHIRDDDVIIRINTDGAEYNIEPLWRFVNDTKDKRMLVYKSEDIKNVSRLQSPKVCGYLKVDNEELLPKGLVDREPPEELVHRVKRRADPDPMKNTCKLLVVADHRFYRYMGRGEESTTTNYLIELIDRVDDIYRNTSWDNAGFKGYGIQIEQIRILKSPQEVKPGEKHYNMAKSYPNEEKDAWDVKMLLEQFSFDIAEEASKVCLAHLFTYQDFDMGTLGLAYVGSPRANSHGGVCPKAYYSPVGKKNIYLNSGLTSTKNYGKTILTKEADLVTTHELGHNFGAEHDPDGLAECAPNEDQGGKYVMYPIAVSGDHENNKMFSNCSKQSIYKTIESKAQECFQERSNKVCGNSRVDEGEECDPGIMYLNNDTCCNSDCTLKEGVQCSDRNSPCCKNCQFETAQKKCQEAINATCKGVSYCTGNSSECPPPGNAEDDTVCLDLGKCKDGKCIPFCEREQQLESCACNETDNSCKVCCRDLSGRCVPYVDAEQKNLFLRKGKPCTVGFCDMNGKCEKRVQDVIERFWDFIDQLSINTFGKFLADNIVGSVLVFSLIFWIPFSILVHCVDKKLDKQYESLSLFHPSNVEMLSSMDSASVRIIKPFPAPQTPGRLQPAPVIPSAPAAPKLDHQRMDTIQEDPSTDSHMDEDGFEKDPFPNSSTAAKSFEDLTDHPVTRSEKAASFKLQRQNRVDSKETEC

fMet-Leu-Phe receptor = molecular target: T8, fMet-Leu-Phe receptor (Homo sapiens, UniProt P21462); assay: formyl peptide receptor binders – dose response (AID 519); format: functional
T8 sequence (P21462 whole entry): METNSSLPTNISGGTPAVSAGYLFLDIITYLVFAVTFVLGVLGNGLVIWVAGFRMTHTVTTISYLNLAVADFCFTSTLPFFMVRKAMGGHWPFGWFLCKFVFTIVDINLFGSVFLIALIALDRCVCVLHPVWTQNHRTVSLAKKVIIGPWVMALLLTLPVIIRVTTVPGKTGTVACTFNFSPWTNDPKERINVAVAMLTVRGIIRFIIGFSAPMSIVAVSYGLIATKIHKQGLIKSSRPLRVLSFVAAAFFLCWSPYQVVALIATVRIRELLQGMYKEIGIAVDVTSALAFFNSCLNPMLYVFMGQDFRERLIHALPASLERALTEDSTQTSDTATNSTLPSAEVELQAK

What does the source list for `NC(=O)c1ccsc1NC(=O)c1ccc2c(c1)CCCC2`?
AC50 [1]: 14.1 µM (active); AC50 [2]: 42.4 µM (active); AC50 [3]: 9.99 µM (active); AC50 [4]: 15.2 µM (active); EC50 [5]: > 67.5 µM (inactive); AC50 [6]: 31.4 µM (active); EC50 (cells [7]): > 67.5 µM (inactive)

For `Cc1ccn2c(CNCC3OCCc4ccccc43)c(C(=O)N3CCCCCC3)nc2c1` (configuration not stated), which IC50 (cells [8]) is on record?
The IC50 was > 29.9 µM (inactive).

And the EC50 [9]?
Its EC50 is 4.98 µM (active).

And the IC50 [10]?
Its IC50 is 9.37 µM (active).

And the EC50 (cells [11])?
Its EC50 is > 29.9 µM (inactive).

Which results are given for `NC(=O)c1c(NC(=O)c2ccccc2)sc2c1CCC2`?
IC50 (Caspase-3): 27.7 µM (active); IC50 [12]: 7.52 µM (active); IC50 [13]: > 100 µM (inactive); IC50 [14]: > 100 µM (inactive); EC50 [5]: > 67.5 µM (inactive); EC50 (cells [7]): > 67.5 µM (inactive)

With `CCc1ccc(NC(=O)c2ccc(F)c(S(=O)(=O)NCC3COc4ccccc4O3)c2)cc1` (configuration not stated) as the compound, how does the EC50 [15] read?
Its EC50 is 10.7 µM (active).

And the EC50 (Streptokinase A)?
Its EC50 is 35.2 µM (active).

What about the EC50 (Streptococcus) of the same compound?
Its EC50 is 18.4 µM (active).

And the IC50 [16]?
Its IC50 is > 69.5 µM (inactive).

Which Ki (fMet-Leu-Phe receptor) does the source give for `CC1=C(C#N)C(c2ccc3ncccc3c2)C(C#N)=C(C)N1` here?
Its Ki is > 66.7 µM (inactive).
